“And” between values parts separate entries of the source, which are not always exact repeats. Identical values can stand only once.
Columns and labels:
Type in all cases: in vivo, Sprague-Dawley rats
[1] = test system: Monoiodine Acetate-Induced Osteoarthritis Pain Model; assay: Beam balance test, MIA-induced osteoarthritis rats; conditions: for Beam balance test score, from normal (0) to pathological (4): 20 μL i.a. day 8 after MIA, Table 3
Description: (§1) Damage to the joint was induced by an individual intraarticular administration, in the paw of a pre-anesthetized rat, of 2 mg of […] (MIA) (volume: 25 μl) according to what described by Guingamp et al., Arthritis Rheum., 40:1670-1679, 1997.
(§2) The experiments described below were performed by injecting into the joint 20 μl of • control (physiological solution); • extract of lyophilized Echinacea purpurea, fraction soluble in hydroalcoholic solution 40-50%, denoted in the figures as 13C1608:2-10-20 mg/ml in PBS (phosphate buffered saline); • extract of lyophilized Centella asiatica, fraction soluble in hydroalcoholic solution 65-75%, denoted in the figures as 14G1862:0.2-1-2 mg/ml in PBS; • bovine synovial fluid: as is; • Hyalgan (Low-molecular weight Hyaluronic acid sodium salt (MW ˜500-730 kDa)):as is; • Jonexa (mixture comprised of a hylastan gel, i.e. a hyaluronic acid crosslinked with divinyl sulfone, and a sodium hyaluronate liquid in the gel-liquid ratio of 80:20): as is; • extract of Centella asiatica fraction soluble in hydroalcoholic solution 65-75%, denoted in the figures as 14G1862: 2 mg/ml in PBS • extract of lyophilized Centella asiatica, fraction soluble in hydroalcoholic solution, denoted in the figures as ABO-AR-2016-391: 2 mg/ml in PBS; • extract of lyophilized Centella asiatica, fraction soluble in hydroalcoholic solution, corresponding to the permeate of fraction ABO-AR-2016-391 after filtration, denoted in the figures as ABO-AR-2016-392:2 mg/ml in PBS; • extract of lyophilized Centella asiatica, fraction soluble in hydroalcoholic solution, corresponding to the retentate of fraction ABO-AR-2016-391 after filtration, denoted in the figures as ABO-AR-2016-393:2 mg/ml in PBS; • Triamcinolone acetonide: 100 μg/[…] • MIX (coextract) Centella+Echinacea lot 17H0246, as described above: 11 mg/ml in water f.p.i.
(§3) The mixture of plant extracts was solubilized in accordance with the following protocol: 5.5 g of lyophilized mixture were introduced in a beaker containing 450 g of water and left under stirring 15 min; thereafter, the weight of the liquid was brought to 500 g. For each injection, 30 g of solution were collected and filtered in sequence with 0.45-μ, and 0.22-μm filters. For each filtering, the first 3-4 g of solution were discarded. 20 μL of mixture were injected into the tibiotarsal joint of the rat (using a 26Gx3/8 needle) after having flexed its paw so as to form a 90°-degree angle, at day 8 from articular (joint) damage induction by MIA. For the other substances as well 20 μL of solution were injected (Hyalgan 10 mg/ml; triamcinolone acetonide 100 μg/20m1).
A 1-meter-long wooden beam having a 1 cm-square section was placed at a height of about 40 cm. […]

[2] = test system: Monoiodine Acetate-Induced Osteoarthritis Pain Model; assay: Paw pressure test, MIA-induced osteoarthritis rats
Description: as §1, §2
(§4) Injected material: 20 μL of each sample assayed were injected into rat tibiotarsal joint (using a 26Gx3/8 needle) at […] from damage induction by MIA.
as §3
An analgesimeter (Ugo Basile, Varese, Italy) was used. A pressure increasing at a constant rate (32 g/s) was applied on the hind paw of the animal by a blunt conical element. The nociceptive threshold of the rat was expressed as that force to which the animal reacts by withdrawing the paw or vocalizing (Leighton et al., 1988).

[3] = test system: Monoiodine Acetate-Induced Osteoarthritis Pain Model; assay: Incapacitance test, MIA-induced osteoarthritis rats; conditions: for Incapacitance test Δ Weight (contralateral - ipsilateral paw): 20 μL i.a. day 8 after MIA, Table 2; for Incapacitance test Δ Weight (paw contralateral - ipsilateral): 20 μL i.a. of fraction (2 mg/ml) or triamcinolone acetonide (100 μg), Table 9
Description: as §1, §2, §4, §3
The test is based on the evaluation of the pressure exerted by a rat under conditions of normal posture on each of the hind legs (Hay et al. Neurosci. 78:843-850, 1997). Rats were placed into a small plexiglass box, their hind legs positioned onto two transducers recording the weight the rat distributes on each of the two paws. In case a neuropathy or an inflammation has been induced on one paw, the rat will exert less weight on said paw, compared to the other one.

[4] = test system: Monoiodine Acetate-Induced Osteoarthritis Pain Model; assay: Animex test (spontaneous activity), MIA-induced osteoarthritis rats; conditions: for Animex test Number of movements: 20 μL i.a. day 8 after MIA, Table 4
Description: as §1, §2
as §3, with “For the other substances as well 20 μL of solution were injected (Hyalgan 10 mg/ml; triamcinolone acetonide 100 μg/20m1).” left out
The instrument enables to record the spontaneous activity of the animals through use of electromagnetic fields and resonance circuits. […] Variations are recorded by a number counter.

rat tibiotarsal joint = assay: Histology of the tibiotarsal joint, MIA-treated rats
Description: as §1, §2, §4
Tissue samples were fixed in 4% formalin in phosphate buffer for 24 hours. Subsequently, samples were decalcified for 28 days in a suitable decalcifying solution (1.6M formic acid, 0.76M sodium formate). At the end of the decalcification, the samples were dehydrated by passages in alcohol with increasing titer, and then included in paraffin. From samples thus processed, 7 μm-thick sections were obtained which were stained by Hematoxylin-Eosin.
The samples were observed under transmitted light optical microscope to assess the morphological parameters subject of analysis: • Inflammatory infiltrate • Synovial hyperplasia • Fibrin deposition in the joint space • Synovial vascularization • Cartilage erosion • Bone erosion • Joint space width
Every morphological parameter was evaluated by a specially provided score (0:absent, 1:scarce, 2:moderate, 3:serious). The evaluation was performed by three separate operators, in blind relative to the origin of the slides. A fourth operator collected data and obtained the final means. For each joint, at least three slides, and for each group at least 6 animals were evaluated. Results are expressed as mean±standard error.

[5] = coextract study, single i.a. 20 μL, days 14, 30, 60
[6] = Centella fractions study, FIGS. 3 and 4

## CC1(C)O[C@@H]2C[C@H]3[C@@H]4CCC5=CC(=O)C=C[C@]5(C)[C@@]4(F)[C@@H](O)C[C@]3(C)[C@]2(C(=O)CO)O1 [triamcinolone acetonide, Triamcinolone acetonide]
[1]; Day 14
  Beam balance test score, from normal (0) to pathological (4): 1.8 ± 0.2^
[1]; Day 30
  Beam balance test score, from normal (0) to pathological (4): 1.3 ± 0.2
[1]; Day 60
  Beam balance test score, from normal (0) to pathological (4): 0.8 ± 0.2
[1]; [5]
  motor abilities, Beam balance test (in words): statistical significance is reached solely at day 14
[2]; Day 14, contralateral, 20 μL i.a. day 8 after MIA, Table 1
  Paw pressure test Weight: 64.5 ± 0.9 g
[2]; Day 14, contralateral, 20 μL i.a. of fraction (2 mg/ml) or triamcinolone acetonide (100 μg), Table 8
  Paw pressure test Weight: 65.3 ± 1.0 g
[2]; Day 14, ipsilateral, 20 μL i.a. day 8 after MIA, Table 1
  Paw pressure test Weight: 51.9 ± 1.3^^ g
[2]; Day 14, ipsilateral, 20 μL i.a. of fraction (2 mg/ml) or triamcinolone acetonide (100 μg), Table 8
  Paw pressure test Weight: 52.8 ± 1.1 g
[2]; Day 30, contralateral, 20 μL i.a. day 8 after MIA, Table 1
  Paw pressure test Weight: 68.4 ± 1.6 g
[2]; Day 30, contralateral, 20 μL i.a. of fraction (2 mg/ml) or triamcinolone acetonide (100 μg), Table 8
  Paw pressure test Weight: 65.8 ± 0.5 g
[2]; Day 30, ipsilateral, 20 μL i.a. day 8 after MIA, Table 1
  Paw pressure test Weight: 57.4 ± 0.4^ g
[2]; Day 30, ipsilateral, 20 μL i.a. of fraction (2 mg/ml) or triamcinolone acetonide (100 μg), Table 8
  Paw pressure test Weight: 56.7±2.5 g and 56.7 ± 2.5^^ g
[2]; Day 60, contralateral, 20 μL i.a. day 8 after MIA, Table 1
  Paw pressure test Weight: 64.9 ± 2.1 g
[2]; Day 60, contralateral, 20 μL i.a. of fraction (2 mg/ml) or triamcinolone acetonide (100 μg), Table 8
  Paw pressure test Weight: 66.4 ± 0.7 g
[2]; Day 60, ipsilateral, 20 μL i.a. day 8 after MIA, Table 1
  Paw pressure test Weight: 63.0 ± 1.5^ g
[2]; Day 60, ipsilateral, 20 μL i.a. of fraction (2 mg/ml) or triamcinolone acetonide (100 μg), Table 8
  Paw pressure test Weight: 61.3 ± 1.6 g
[2]; [5]
  antiperalgesic effect, Paw pressure test (in words): significantly reduces the articular pain reaction at all timings
[3]; Centella fractions study, fractions 2 mg/ml, triamcinolone acetonide 100 μg
  Incapacitance test effect (in words): active both at days 14 and 30
[3]; Day 14
  Incapacitance test Δ Weight (contralateral - ipsilateral paw): 45.7 ± 3.9^^ g
  Incapacitance test Δ Weight (paw contralateral - ipsilateral): 28.7 ± 3.2^ g
[3]; Day 30
  Incapacitance test Δ Weight (contralateral - ipsilateral paw): 25.4 ± 4.3^^ g
  Incapacitance test Δ Weight (paw contralateral - ipsilateral): 15.6 ± 5.4^ g
[3]; Day 60
  Incapacitance test Δ Weight (contralateral - ipsilateral paw): 20.9 ± 5.4^ g
  Incapacitance test Δ Weight (paw contralateral - ipsilateral): 5.6 ± 4.4 g
[3]; [5]
  reduction of MIA-induced postural alteration, Incapacitance test (in words): reduces, it also in a statistically significant manner, MIA-induced alteration at all timings considered
[4]; Day 14
  Animex test Number of movements: 487.3 ± 57.3^
[4]; Day 30
  Animex test Number of movements: 583.3 ± 45.2^
[4]; Day 60
  Animex test Number of movements: 688.9 ± 54.2^
[4]; [5]
  spontaneous mobility, Animex test (in words): effectiveness is lower than that of the plant mixture
Rat tibiotarsal joint; [6]
  cartilage and bone tissue erosion (histology, in words): significant effectiveness
  inflammatory infiltrate (histology, in words): significant effectiveness
  joint space reduction (histology, in words): reduced effectiveness to 15- and 30-day timings and a more marked effectiveness after 60 days
  morphological parameters overall (histology, in words): only partially reduces the damaging effects of MIA
  other parameters: synovial hyperplasia, fibrin deposition, synovial vascularization (histology, in words): reduced effectiveness to 15- and 30-day timings and a more marked effectiveness after 60 days
Rat tibiotarsal joint; coextract study, FIG. 18-19
  articular space width (histology, in words): Evident effects
  erosion of cartilage and subchondral bone (histology, in words): analogous result
  fibrin deposition in the articular space (histology, in words): More moderate effects
  inflammatory infiltrate (histology, in words): capable of eliminating the presence of inflammatory infiltrate at all timings analyzed
  synovial hyperplasia and vascularization (histology, in words): More moderate effects
